In patent publication US20240174679A1, “HETEROAROYL AMIDES AS LRRK2 INHIBITORS, PHARMACEUTICAL COMPOSITIONS, AND USES THEREOF” (MERCK SHARP & DOHME LLC, priority 2021, published 2024):

These compounds were tested against GST tagged truncated human mutant G2019S LRRK2 (Homo sapiens (Human), UniProt Q5S007, G2019S) (assay: LRRK2 Km ATP LanthaScreen Assay). Conditions: 134 μM ATP (Km ATP), LRRKtide substrate, negative log of mean IC50 (molar).
Format: biochemical
Method in brief: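 Truncated GST-tagged G2019S LRRK2 (1.25 nM enzyme solution) was preincubated with compound for 15 min at rt, then reacted for 90 min with fluorescein-LRRKtide and 134 μM ATP (Km) in Tris pH 8.5/MgCl2 buffer. After an EDTA stop, TR-FRET used a Tb anti-pERM antibody (520/495 nm ratio). IC50 came from a 4-parameter fit and is reported as pIC50, mean of several runs.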

Sequence of GST tagged truncated human mutant G2019S LRRK2 (Q5S007 970-2527 G2019S): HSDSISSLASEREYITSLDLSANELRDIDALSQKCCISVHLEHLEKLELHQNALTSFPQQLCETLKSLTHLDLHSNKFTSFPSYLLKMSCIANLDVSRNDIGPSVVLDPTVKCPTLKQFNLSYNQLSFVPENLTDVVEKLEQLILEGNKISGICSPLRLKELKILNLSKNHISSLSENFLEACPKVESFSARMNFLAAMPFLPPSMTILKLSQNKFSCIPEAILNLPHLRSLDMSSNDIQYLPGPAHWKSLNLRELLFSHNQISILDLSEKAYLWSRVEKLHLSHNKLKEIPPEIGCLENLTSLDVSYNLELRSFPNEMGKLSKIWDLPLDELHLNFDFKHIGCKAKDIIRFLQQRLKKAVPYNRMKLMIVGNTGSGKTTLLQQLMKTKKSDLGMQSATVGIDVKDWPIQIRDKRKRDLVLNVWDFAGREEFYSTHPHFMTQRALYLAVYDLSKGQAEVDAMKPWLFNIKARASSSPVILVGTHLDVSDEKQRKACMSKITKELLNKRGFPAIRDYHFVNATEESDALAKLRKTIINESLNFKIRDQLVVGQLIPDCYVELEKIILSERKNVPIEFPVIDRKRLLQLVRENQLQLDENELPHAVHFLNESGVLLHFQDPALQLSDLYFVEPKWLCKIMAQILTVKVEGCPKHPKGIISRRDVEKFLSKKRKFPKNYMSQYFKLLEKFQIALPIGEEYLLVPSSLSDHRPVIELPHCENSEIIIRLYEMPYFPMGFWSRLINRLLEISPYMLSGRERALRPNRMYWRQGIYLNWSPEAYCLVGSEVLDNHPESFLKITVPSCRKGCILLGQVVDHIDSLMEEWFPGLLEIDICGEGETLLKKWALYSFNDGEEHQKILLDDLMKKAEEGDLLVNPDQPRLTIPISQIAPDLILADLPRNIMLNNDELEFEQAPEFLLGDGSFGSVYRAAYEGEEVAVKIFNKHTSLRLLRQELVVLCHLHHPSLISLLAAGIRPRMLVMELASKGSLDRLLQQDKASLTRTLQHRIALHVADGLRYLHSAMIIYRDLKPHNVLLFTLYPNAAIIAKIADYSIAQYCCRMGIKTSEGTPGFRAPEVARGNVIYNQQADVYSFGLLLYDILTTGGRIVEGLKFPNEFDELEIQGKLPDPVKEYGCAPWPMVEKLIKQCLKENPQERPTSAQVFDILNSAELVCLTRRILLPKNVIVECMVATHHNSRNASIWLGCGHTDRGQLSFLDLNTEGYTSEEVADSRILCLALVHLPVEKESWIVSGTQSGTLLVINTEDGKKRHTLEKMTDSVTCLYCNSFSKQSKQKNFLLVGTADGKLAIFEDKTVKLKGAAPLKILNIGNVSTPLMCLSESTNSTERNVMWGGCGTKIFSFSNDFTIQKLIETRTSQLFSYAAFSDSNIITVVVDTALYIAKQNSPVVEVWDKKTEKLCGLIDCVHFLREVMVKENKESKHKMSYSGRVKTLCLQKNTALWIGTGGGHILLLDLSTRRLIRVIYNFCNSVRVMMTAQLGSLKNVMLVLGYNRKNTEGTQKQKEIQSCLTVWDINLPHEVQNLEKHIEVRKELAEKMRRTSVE

Structure (SMILES)	LRRK2 pIC50
Cc1cc(-n2cc(NC(=O)c3csc(-c4cn[nH]c4)n3)cn2)ccn1 [Example 8-1, N-(1-(2-Methylpyridin-4-yl)-1H-pyrazol-4-yl)-2-(1H-pyrazol-4-yl)thiazole-4-carboxamide]	7.90
Cc1cnccc1-n1cc(NC(=O)c2csc(-c3cn[nH]c3)n2)cn1 [Example 8-2, N-[1-(3-methylpyridin-4-yl)-1H-pyrazol-4-yl]-2-(1H-pyrazol-4-yl)-1,3-thiazole-4-carboxamide]	7.74
Cn1cc(NC(=O)c2csc(-c3cn[nH]c3)n2)c(CO)n1 [Example 6-1, N-(3-(Hydroxymethyl)-1-methyl-1H-pyrazol-4-yl)-2-(1H-pyrazol-4-yl)thiazole-4-carboxamide]	7.47
CC(C#N)n1cc(NC(=O)c2csc(-c3cn[nH]c3)n2)c(C(F)F)n1 (centres unmarked) [Example 7-31, N-[1-(1-cyanoethyl)-3-(difluoromethyl)-1H-pyrazol-4-yl]-2-(1H-pyrazol-4-yl)-1,3-thiazole-4-carboxamide]	7.40
O=C(Nc1cn(CC2CC2(F)F)nc1C(F)F)c1csc(-c2cn[nH]c2)n1 (centres unmarked) [Example 7-29, N-{1-[(2,2-difluorocyclopropyl)methyl]-3-(difluoromethyl)-1H-pyrazol-4-yl}-2-(1H-pyrazol-4-yl)-1,3-thiazole-4-carboxamide]	7.78
Cn1nccc1-c1cccc(C(=O)Nc2cnn(CC3CCC3)c2)n1 [Example 9-20, N-[1-(cyclobutylmethyl)-1H-pyrazol-4-yl]-6-(1-methyl-1H-pyrazol-5-yl)pyridine-2-carboxamide]	5.07
Cn1cc(NC(=O)c2csc(-c3cn[nH]c3)n2)c(C(N)=O)n1 [Example 1-13, N-(3-carbamoyl-1-methyl-1H-pyrazol-4-yl)-2-(1H-pyrazol-4-yl)-1,3-thiazole-4-carboxamide]	8.17
Cn1cc(-c2nc(C(=O)Nc3cn(C4CC4)nc3C3CC3)cs2)cn1 [Example 12-3, N-(1,3-dicyclopropyl-1H-pyrazol-4-yl)-2-(1-methyl-1H-pyrazol-4-yl)-1,3-thiazole-4-carboxamide]	7.84
O=C(Nc1cnn(CC2CCC2)c1)c1cccc(-c2cnsc2)n1 [Example 9-15, N-[1-(cyclobutylmethyl)-1H-pyrazol-4-yl]-6-isothiazol-4-ylpyridine-2-carboxamide]	6.66
O=C(Nc1cnn(CC2CCC2)c1)c1cccc(-c2ccnnc2)n1 [Example 9-19, N-[1-(cyclobutylmethyl)-1H-pyrazol-4-yl]-6-pyridazin-4-ylpyridine-2-carboxamide]	5.22
COc1nn(CC2CCC2)cc1NC(=O)c1csc(-c2cn[nH]c2)n1 [Example 7-19, N-[1-(cyclobutylmethyl)-3-methoxy-1H-pyrazol-4-yl]-2-(1H-pyrazol-4-yl)-1,3-thiazole-4-carboxamide]	7.80
O=C(Nc1cn(C2CC2)nc1C(F)F)c1csc(-c2cn[nH]c2)n1 [Example 1-38, N-[1-cyclopropyl-3-(difluoromethyl)-1H-pyrazol-4-yl]-2-(1H-pyrazol-4-yl)-1,3-thiazole-4-carboxamide]	8.23
O=C(Nc1cnn(CC2(F)COC2)c1)c1csc(-c2cn[nH]c2)n1 [Example 5-1, N-(1-((3-Fluorooxetan-3-yl)methyl)-1H-pyrazol-4-yl)-2-(1H-pyrazol-4-yl)thiazole-4-carboxamide]	7.50
CC(C)Cn1cc(NC(=O)c2csc(-c3cn[nH]c3)n2)cn1 [Example 7-41, N-[1-(2-methylpropyl)-1H-pyrazol-4-yl]-2-(1H-pyrazol-4-yl)-1,3-thiazole-4-carboxamide]	7.46
CN(C)C(=O)c1nn(C)cc1NC(=O)c1csc(-c2cn[nH]c2)n1 [Example 1-36, N-[3-(dimethylcarba-moyl)-1-methyl-1H-pyrazol-4-yl]-2-(1H-pyrazol-4-yl)-1,3-thiazole-4-carboxamide]	7.25
CC(C)n1cc(NC(=O)c2csc(-c3cn[nH]c3)n2)c(OCC(F)F)n1 [Example 1-46, N-[3-(2,2-difluoroethoxy)-1-(1-methylethyl)-1H-pyrazol-4-yl]-2-(1H-pyrazol-4-yl)-1,3-thiazole-4-carboxamide]	7.57

Structure (SMILES)	LRRK2 pIC50
CC(C)n1cc(NC(=O)c2csc(-c3cn[nH]c3)n2)c(OCC(F)(F)F)n1 [Example 1-7, N-[1-(1-methylethyl)-3-(2,2,2-trifluoroethoxy)-1H-pyrazol-4-yl]-2-(1H-pyrazol-4-yl)-1,3-thiazole-4-carboxamide]	7.17
COc1nn(Cc2nnc3n2CCCCC3)cc1NC(=O)c1csc(-c2cn[nH]c2)n1 [Example 1-28, N-[3-methoxy-1-(6,7,8,9-tetrahydro-5H-[1,2,4]triazolo[4,3-a]azepin-3-ylmethyl)-1H-pyrazol-4-yl]-2-(1H-pyrazol-4-yl)-1,3-thiazole-4-carboxamide]	6.95
Cn1cc(NC(=O)c2csc(-c3cn[nH]c3)n2)c(OCC(F)F)n1 [Example 1-26, N-[3-(2,2-difluoroethoxy)-1-methyl-1H-pyrazol-4-yl]-2-(1H-pyrazol-4-yl)-1,3-thiazole-4-carboxamide]	7.56
COc1nn(CC2(C#N)CC2)cc1NC(=O)c1csc(-c2cn[nH]c2)n1 [Example 7-25, N-{1-[(1-cyanocyclopropyl)methyl]-3-methoxy-1H-pyrazol-4-yl}-2-(1H-pyrazol-4-yl)-1,3-thiazole-4-carboxamide]	7.70
COCCn1cc(NC(=O)c2csc(-c3cn[nH]c3)n2)c(OC)n1 [Example 7-21, N-[3-methoxy-1-(2-methoxyethyl)-1H-pyrazol-4-yl]-2-(1H-pyrazol-4-yl)-1,3-thiazole-4-carboxamide]	6.57
N#Cc1cccc(-c2cccc(C(=O)Nc3cnn(CC4CCC4)c3)n2)c1 [Example 9-29, 6-(3-cyanophenyl)-N-[1-(cyclobutylmethyl)-1H-pyrazol-4-yl]pyridine-2-carboxamide]	5.51
CC1(Cn2cc(NC(=O)c3csc(-c4cn[nH]c4)n3)c(C(F)F)n2)COC1 [Example 7-42, N-{3-(difluoromethyl)-1-[(3-methyloxetan-3-yl)methyl]-1H-pyrazol-4-yl}-2-(1H-pyrazol-4-yl)-1,3-thiazole-4-carboxamide]	6.51
O=C(Nc1cnn(C2CCC2)c1)c1csc(-c2cc[nH]n2)n1 [Example 9-14, N-(1-cyclobutyl-1H-pyrazol-4-yl)-2-(1H-pyrazol-3-yl)-1,3-thiazole-4-carboxamide]	7.41
COc1nn(C2CC2)cc1NC(=O)c1csc(-c2cn[nH]c2)n1 [Example 1-37, N-(1-cyclopropyl-3-methoxy-1H-pyrazol-4-yl)-2-(1H-pyrazol-4-yl)-1,3-thiazole-4-carboxamide]	7.51
Cn1cc(NC(=O)c2csc(-c3cn[nH]c3)n2)c(C(F)(F)F)n1 [Example 1-40, N-[1-methyl-3-(trifluoromethyl)-1H-pyrazol-4-yl]-2-(1H-pyrazol-4-yl)-1,3-thiazole-4-carboxamide]	7.10
Cn1cc(-c2cccc(C(=O)Nc3cnn(CC4CCC4)c3)n2)cn1 [Example 9-25, N-[1-(cyclobutylmethyl)-1H-pyrazol-4-yl]-6-(1-methyl-1H-pyrazol-4-yl)pyridine-2-carboxamide]	7.38
COCCn1cc(NC(=O)c2csc(-c3cn[nH]c3)n2)c(C(F)F)n1 [Example 7-3, N-[3-(difluoromethyl)-1-(2-methoxyethyl)-1H-pyrazol-4-yl]-2-(1H-pyrazol-4-yl)-1,3-thiazole-4-carboxamide]	7.27
Cn1ccc(-c2cccc(C(=O)Nc3cnn(CC4CCC4)c3)n2)c1 [Example 9-32, N-[1-(cyclobutylmethyl)-1H-pyrazol-4-yl]-6-(1-methyl-1H-pyrrol-3-yl)pyridine-2-carboxamide]	6.59
CCn1cc(NC(=O)c2csc(-c3cn[nH]c3)n2)c(C#N)n1 [Example 1-10, N-(3-cyano-1-ethyl-1H-pyrazol-4-yl)-2-(1H-pyrazol-4-yl)-1,3-thiazole-4-carboxamide]	7.30
Cc1cc(-n2cc(NC(=O)c3csc(-c4cn[nH]c4)n3)cn2)cc(C)n1 [Example 8-4, N-[1-(2,6-dimethylpyridin-4-yl)-1H-pyrazol-4-yl]-2-(1H-pyrazol-4-yl)-1,3-thiazole-4-carboxamide]	7.82
CC1(Cn2cc(NC(=O)c3csc(-c4cn[nH]c4)n3)cn2)CCC1 [Example 1-34, N-{1-[(1-methylcyclobu-tyl)methyl]-1H-pyrazol-4-yl}-2-(1H-pyrazol-4-yl)-1,3-thiazole-4-carboxamide]	7.92
